Source: patent publication US10681909B2, “Herbicidal triazoles” (FMC Corporation, priority 2014, dated 2020)

Assays:
barnyardgrass [1] = test: Test A preemergence; type: in vivo, Echinochloa crus-galli; details: 0 to 100 scale (0 no effect, 100 complete control)
Description: (§1) Seeds of plant species selected from barnyardgrass (Echinochloa crus-galli), crabgrass, large (large crabgrass, Digitaria sanguinalis), kochia (Kochia scoparia), ragweed (common ragweed, Ambrosia elatior), foxtail, giant (giant foxtail, Setaria faberii), morningglory (Ipomoea spp.), pigweed (Amaranthus retroflexus), velvetleaf (Abutilon theophrasti), ryegrass, Italian (Italian ryegrass, Lolium multiflorum), wheat (Triticum aestivum), and corn (Zea mays) were planted into a blend of loam soil and sand and treated preemergence with a directed soil spray using test chemicals formulated in a non-phytotoxic solvent mixture which included a surfactant. At the same time, plants selected from these crop and weed species and also blackgrass (Alopecurus myosuroides), and galium (catchweed bedstraw, Galium aparine), were planted in pots containing the same blend of loam soil and sand and treated with postemergence applications of test chemicals formulated in the same manner. Plants ranged in height from 2 to 10 cm and were in the one- to two-leaf stage for the postemergence treatment. […] A dash (-) response means no test result.

crabgrass, large [2] = test: Test A preemergence; type: in vivo, Digitaria sanguinalis; details: 0 to 100 scale (0 no effect, 100 complete control)
Description: as §1

foxtail, giant [3] = test: Test A preemergence; type: in vivo, Setaria faberii; details: 0 to 100 scale (0 no effect, 100 complete control)
Description: as §1

morningglory [4] = test: Test A preemergence; type: in vivo, Ipomoea spp.; details: 0 to 100 scale (0 no effect, 100 complete control)
Description: as §1

pigweed [5] = test: Test A preemergence; type: in vivo, Amaranthus retroflexus; details: 0 to 100 scale (0 no effect, 100 complete control)
Description: as §1

velvetleaf [6] = test: Test A preemergence; type: in vivo, Abutilon theophrasti; details: 0 to 100 scale (0 no effect, 100 complete control)
Description: as §1

wheat [7] = test: Test A preemergence; type: in vivo, Triticum aestivum; details: 0 to 100 scale (0 no effect, 100 complete control)
Description: as §1

corn [8] = test: Test A preemergence; type: in vivo, Zea mays; details: 0 to 100 scale (0 no effect, 100 complete control)
Description: as §1

barnyardgrass [9] = test: Test A postemergence; type: in vivo, Echinochloa crus-galli; details: 0 to 100 scale (0 no effect, 100 complete control), approx. 10 d
Description: as §1

crabgrass, large [10] = test: Test A postemergence; type: in vivo, Digitaria sanguinalis; details: 0 to 100 scale (0 no effect, 100 complete control), approx. 10 d
Description: as §1

foxtail, giant [11] = test: Test A postemergence; type: in vivo, Setaria faberii; details: 0 to 100 scale (0 no effect, 100 complete control), approx. 10 d
Description: as §1

morningglory [12] = test: Test A postemergence; type: in vivo, Ipomoea spp.; details: 0 to 100 scale (0 no effect, 100 complete control), approx. 10 d
Description: as §1

pigweed [13] = test: Test A postemergence; type: in vivo, Amaranthus retroflexus; details: 0 to 100 scale (0 no effect, 100 complete control), approx. 10 d
Description: as §1

velvetleaf [14] = test: Test A postemergence; type: in vivo, Abutilon theophrasti; details: 0 to 100 scale (0 no effect, 100 complete control), approx. 10 d
Description: as §1

wheat [15] = test: Test A postemergence; type: in vivo, Triticum aestivum; details: 0 to 100 scale (0 no effect, 100 complete control), approx. 10 d
Description: as §1

corn [16] = test: Test A postemergence; type: in vivo, Zea mays; details: 0 to 100 scale (0 no effect, 100 complete control), approx. 10 d
Description: as §1

rice = test: Test B flooded paddy test; type: in vivo, Oryza sativa; details: applied to paddy water at 2-leaf stage, visual rating after 13 to 15 d, scale 0 (no effect) to 100 (complete control)
Description: (§2) At time of treatment, test pots were flooded to 3 cm above the soil surface, treated by application of test compounds directly to the paddy water, and then maintained at that water depth for the duration of the test. Treated plants and controls were maintained in a greenhouse for 13 to 15 d, after which time all species were compared to controls and visually evaluated. […] A dash (-) response means no test result.

sedge, umbrella = test: Test B flooded paddy test; type: in vivo, Cyperus difformis; details: applied to paddy water at 2-leaf stage, visual rating after 13 to 15 d, scale 0 (no effect) to 100 (complete control)
Description: as §2

ducksalad = test: Test B flooded paddy test; type: in vivo, Heteranthera limosa; details: applied to paddy water at 2-leaf stage, visual rating after 13 to 15 d, scale 0 (no effect) to 100 (complete control)
Description: as §2

barnyardgrass [17] = test: Test B flooded paddy test; type: in vivo, Echinochloa crus-galli; details: applied to paddy water at 2-leaf stage, visual rating after 13 to 15 d, scale 0 (no effect) to 100 (complete control)
Description: as §2

Row | SMILES | Plant response rating, Barnyardgrass (barnyardgrass [1]; 125 g ai/ha) | Plant response rating, Barnyardgrass (barnyardgrass [1]; 500 g ai/ha, approx. 10 d) | Plant response rating, Crabgrass, Large (crabgrass, large [2]; 125 g ai/ha) | Plant response rating, Crabgrass, Large (crabgrass, large [2]; 500 g ai/ha, approx. 10 d) | Plant response rating, Foxtail, Giant (foxtail, giant [3]; 125 g ai/ha) | Plant response rating, Foxtail, Giant (foxtail, giant [3]; 500 g ai/ha, approx. 10 d) | Plant response rating, Morningglory (morningglory [4]; 125 g ai/ha) | Plant response rating, Morningglory (morningglory [4]; 500 g ai/ha, approx. 10 d) | Plant response rating, Pigweed (pigweed [5]; 125 g ai/ha) | Plant response rating, Pigweed (pigweed [5]; 500 g ai/ha, approx. 10 d) | Plant response rating, Velvetleaf (velvetleaf [6]; 125 g ai/ha) | Plant response rating, Velvetleaf (velvetleaf [6]; 500 g ai/ha, approx. 10 d) | Plant response rating, Wheat (wheat [7]; 125 g ai/ha) | Plant response rating, Wheat (wheat [7]; 500 g ai/ha, approx. 10 d) | Plant response rating, Corn (corn [8]; 125 g ai/ha) | Plant response rating, Corn (corn [8]; 500 g ai/ha, approx. 10 d) | Plant response rating, Barnyardgrass (barnyardgrass [9]; 125 g ai/ha) | Plant response rating, Barnyardgrass (barnyardgrass [9]; 500 g ai/ha) | Plant response rating, Crabgrass, Large (crabgrass, large [10]; 125 g ai/ha) | Plant response rating, Crabgrass, Large (crabgrass, large [10]; 500 g ai/ha) | further results
1 | CCc1nc(-c2ccc(F)cc2)nn1Cc1ccnc(C(F)(F)F)c1 [Compound 2] | 0 | 80 | 100 | 100 | 80 | 100 | 0 | 60 | 100 | 100 | 0 | 40 | 0 | 20 | 0 | 0 | 20 | 90 | 70 | 100 | Plant response rating, Foxtail, Giant (foxtail, giant [11]; 125 g ai/ha): 70; Plant response rating, Foxtail, Giant (foxtail, giant [11]; 500 g ai/ha): 90; Plant response rating, Morningglory (morningglory [12]; 125 g ai/ha): 70; Plant response rating, Morningglory (morningglory [12]; 500 g ai/ha): 90; Plant response rating, Pigweed (pigweed [13]; 125 g ai/ha): 100; Plant response rating, Pigweed (pigweed [13]; 500 g ai/ha): 100; Plant response rating, Velvetleaf (velvetleaf [14]; 125 g ai/ha): 30; Plant response rating, Velvetleaf (velvetleaf [14]; 500 g ai/ha): 100; Plant response rating, Wheat (wheat [15]; 125 g ai/ha): 0; Plant response rating, Wheat (wheat [15]; 500 g ai/ha): 70; Plant response rating, Corn (corn [16]; 125 g ai/ha): 20; Plant response rating, Corn (corn [16]; 500 g ai/ha): 90; Plant response rating, Rice, Flood (rice; 125 g ai/ha): 20; Plant response rating, Sedge, Umbrella, Flood (sedge, umbrella; 125 g ai/ha): 75; Plant response rating, Ducksalad, Flood (ducksalad; 125 g ai/ha): 30; Plant response rating, Barnyardgrass, Flood (barnyardgrass [17]; 125 g ai/ha): 0
2 | Cc1nc(-c2ccc(C(F)(F)F)cc2)nn1Cc1ccnc(C(F)(F)F)c1 [Compound 7] | 20 | 80 | 90 | 100 | 80 | 100 | 10 | 60 | 90 | 100 | 20 | 70 | 0 | 10 | 10 | 10 | 40 | 80 | 50 | 90 | Plant response rating, Foxtail, Giant (foxtail, giant [11]; 125 g ai/ha): 60; Plant response rating, Foxtail, Giant (foxtail, giant [11]; 500 g ai/ha): 90; Plant response rating, Morningglory (morningglory [12]; 125 g ai/ha): 50; Plant response rating, Morningglory (morningglory [12]; 500 g ai/ha): 80; Plant response rating, Pigweed (pigweed [13]; 125 g ai/ha): 100; Plant response rating, Pigweed (pigweed [13]; 500 g ai/ha): 100; Plant response rating, Velvetleaf (velvetleaf [14]; 125 g ai/ha): 80; Plant response rating, Velvetleaf (velvetleaf [14]; 500 g ai/ha): 100; Plant response rating, Wheat (wheat [15]; 125 g ai/ha): 20; Plant response rating, Wheat (wheat [15]; 500 g ai/ha): 50; Plant response rating, Corn (corn [16]; 125 g ai/ha): 30; Plant response rating, Corn (corn [16]; 500 g ai/ha): 50; Plant response rating, Rice, Flood (rice; 250 g ai/ha): 0; Plant response rating, Sedge, Umbrella, Flood (sedge, umbrella; 250 g ai/ha): 85; Plant response rating, Ducksalad, Flood (ducksalad; 250 g ai/ha): 0; Plant response rating, Barnyardgrass, Flood (barnyardgrass [17]; 250 g ai/ha): 0
